Measured values from ChEMBL document CHEMBL3885861, “Open TG-GATES”.

Species: Rattus norvegicus
Test: Open TG-GATES - Regimen: Daily Repeat
Type: toxicity, organism-based, Sprague-Dawley
Design: regimen Daily Repeat, gender Male, age 6 weeks
Conditions: in vivo, po, route gavage; for KIDNEY_L / KIDNEY_TOTAL / KIDNEY_R: tissue Kidney; for LIVER: tissue Liver
[1] = 3 mg/kg, 72 h, dose level Middle, time 3 day
[2] = 3 mg/kg, 72 h, tissue Blood, dose level Middle, time 3 day
[3] = 3 mg/kg, 72 h, tissue Plasma, dose level Middle, time 3 day
[4] = 3 mg/kg, […], dose level Middle, time 28 day
[5] = 3 mg/kg, […], tissue Blood, dose level Middle, time 14 day
[6] = 3 mg/kg, […], tissue Blood, dose level Middle, time 28 day
[7] = 3 mg/kg, […], tissue Plasma, dose level Middle, time 14 day
[8] = 3 mg/kg, […], tissue Plasma, dose level Middle, time 28 day
[9] = 10 mg/kg, 72 h, dose level High, time 3 day
[10] = 10 mg/kg, 72 h, tissue Blood, dose level High, time 3 day
[11] = 10 mg/kg, 72 h, tissue Plasma, dose level High, time 3 day
[12] = 10 mg/kg, […], dose level High, time 14 day
[13] = 10 mg/kg, […], dose level High, time 28 day
[14] = 10 mg/kg, […], tissue Blood, dose level High, time 14 day
[15] = 10 mg/kg, […], tissue Blood, dose level High, time 28 day
[16] = 10 mg/kg, […], tissue Plasma, dose level High, time 14 day
[17] = 10 mg/kg, […], tissue Plasma, dose level High, time 28 day

Structure (SMILES): O=C(O)Cc1ccccc1Nc1c(Cl)cccc1Cl [DICLOFENAC]
- TERMINAL_BW [1]: 236.5 g
- Bas [2]: 0%
- Eos [2]: 1%
- Fbg [2]: 214.8 mg/dL
- Lym [2]: 79.8%
- MCH [2]: 21.5 pg
- Plat [2]: 125.2 x10_4/uL
- RBC [2]: 641.4 x10_4/ul
- WBC [2]: 112.9 x10_2/uL
- KIDNEY_L [1]: 1 g
- KIDNEY_TOTAL [1]: 2.1 g
- LIVER [1]: 11.2 g
- ALP [3]: 1064.8 IU/L
- ALT [3]: 39.2 IU/L
- AST [3]: 69.2 IU/L
- CRE [3]: 0.3 mg/dL
- DBIL [3]: 0.1 mg/dL
- GLC [3]: 194.8 mg/dL
- IP [3]: 7.1 mg/dL
- LDH [3]: 186 IU/L
- PL [3]: 170.8 mg/dL
- RALB [3]: 3.4 g/dL
- TBIL [3]: 0.2 mg/dL
- TC [3]: 84.2 mg/dL
- TG [3]: 122 mg/dL
- gamma-GTP [3]: 1.2 IU/L
- TERMINAL_BW (3 mg/kg, […], dose level Middle, time 14 day): 309.6 g
- TERMINAL_BW [4]: 391.3 g
- Bas [5]: 0%
- Eos [5]: 1%
- Fbg [5]: 226 mg/dL
- MCH [5]: 20.8 pg
- MCHC [5]: 35.6%
- MCV [5]: 58.4 fL
- Neu [5]: 14.2%
- Plat [5]: 116.2 x10_4/uL
- RBC [5]: 705.4 x10_4/ul
- Ret [5]: 3.5%
- WBC [5]: 117.1 x10_2/uL
- Bas [6]: 0%
- Eos [6]: 1%
- Fbg [6]: 216.2 mg/dL
- Lym [6]: 83.2%
- MCH [6]: 20 pg
- MCHC [6]: 36.1%
- MCV [6]: 55.4 fL
- Plat [6]: 110.4 x10_4/uL
- RBC [6]: 789.2 x10_4/ul
- Ret [6]: 2.2%
- WBC [6]: 97.8 x10_2/uL
- KIDNEY_L [4]: 1.4 g
- KIDNEY_R [4]: 1.4 g
- KIDNEY_TOTAL [4]: 2.8 g
- LIVER [4]: 15.1 g
- ALP [7]: 835 IU/L
- ALT [7]: 35 IU/L
- AST [7]: 70.8 IU/L
- CRE [7]: 0.4 mg/dL
- GLC [7]: 224.2 mg/dL
- IP [7]: 7.6 mg/dL
- K [7]: 3.5 meq/L
- LDH [7]: 198.8 IU/L
- PL [7]: 151.2 mg/dL
- RALB [7]: 3.3 g/dL
- TBIL [7]: 0.1 mg/dL
- TC [7]: 71.8 mg/dL
- TG [7]: 135.8 mg/dL
- gamma-GTP [7]: 0.8 IU/L
- ALP [8]: 618.6 IU/L
- AST [8]: 61 IU/L
- CRE [8]: 0.5 mg/dL
- Ca [8]: 10.3 mg/dL
- DBIL [8]: 0.086 mg/dL
- GLC [8]: 221.2 mg/dL
- IP [8]: 7.1 mg/dL
- K [8]: 3.6 meq/L
- LDH [8]: 177 IU/L
- Na [8]: 140.8 meq/L
- PL [8]: 130.2 mg/dL
- RALB [8]: 3.4 g/dL
- TBIL [8]: 0.1 mg/dL
- TC [8]: 60 mg/dL
- TP [8]: 6.2 g/dL
- gamma-GTP [8]: 0.6 IU/L
- TERMINAL_BW [9]: 234.4 g
- Bas [10]: 0%
- Eos [10]: 1%
- Fbg [10]: 231.8 mg/dL
- MCH [10]: 22 pg
- MCV [10]: 63.1 fL
- Neu [10]: 22.4%
- Plat [10]: 128.5 x10_4/uL
- RBC [10]: 591.2 x10_4/ul
- Ret [10]: 4.9%
- WBC [10]: 114.7 x10_2/uL
- KIDNEY_L [9]: 1 g
- KIDNEY_R [9]: 1 g
- KIDNEY_TOTAL [9]: 2 g
- LIVER [9]: 11 g
- ALP [11]: 912.8 IU/L
- ALT [11]: 35.6 IU/L
- AST [11]: 65.2 IU/L
- CRE [11]: 0.4 mg/dL
- DBIL [11]: 0.1 mg/dL
- GLC [11]: 186.6 mg/dL
- IP [11]: 7 mg/dL
- LDH [11]: 196.8 IU/L
- Na [11]: 141.6 meq/L
- PL [11]: 156.8 mg/dL
- RALB [11]: 3.3 g/dL
- TBIL [11]: 0.2 mg/dL
- TC [11]: 77.8 mg/dL
- TG [11]: 107.6 mg/dL
- TP [11]: 5.6 g/dL
- gamma-GTP [11]: 0.4 IU/L
- TERMINAL_BW [12]: 295.1 g
- TERMINAL_BW [13]: 341.6 g
- Bas [14]: 0%
- Eos [14]: 1.4%
- Fbg [14]: 278.8 mg/dL
- Lym [14]: 64%
- MCH [14]: 21.5 pg
- MCHC [14]: 34%
- Mono [14]: 4.4%
- Neu [14]: 29%
- Plat [14]: 157.6 x10_4/uL
- RBC [14]: 593.2 x10_4/ul
- Ret [14]: 12%
- WBC [14]: 192.8 x10_2/uL
- Bas [15]: 0%
- Eos [15]: 1%
- Fbg [15]: 282.4 mg/dL
- Lym [15]: 61.6%
- MCH [15]: 20.3 pg
- MCHC [15]: 32.7%
- Neu [15]: 33%
- Plat [15]: 164.9 x10_4/uL
- RBC [15]: 584.4 x10_4/ul
- WBC [15]: 199.6 x10_2/uL
- KIDNEY_L [13]: 1.3 g
- KIDNEY_R [13]: 1.3 g
- KIDNEY_TOTAL [13]: 2.6 g
- LIVER [12]: 13 g
- ALP [16]: 513.4 IU/L
- ALT [16]: 26.4 IU/L
- AST [16]: 60.4 IU/L
- CRE [16]: 0.4 mg/dL
- GLC [16]: 191.8 mg/dL
- IP [16]: 7.6 mg/dL
- K [16]: 3.9 meq/L
- LDH [16]: 213 IU/L
- PL [16]: 162.6 mg/dL
- RALB [16]: 3 g/dL
- TBIL [16]: 0.1 mg/dL
- TC [16]: 78.4 mg/dL
- TG [16]: 132.2 mg/dL
- TP [16]: 5.4 g/dL
- gamma-GTP [16]: 0.8 IU/L
- ALP [17]: 538.6 IU/L
- ALT [17]: 25.6 IU/L
- AST [17]: 55.2 IU/L
- CRE [17]: 0.4 mg/dL
- Cl [17]: 104.8 meq/L
- DBIL [17]: 0.07 mg/dL
- GLC [17]: 191.4 mg/dL
- IP [17]: 7.1 mg/dL
- K [17]: 3.9 meq/L
- LDH [17]: 226 IU/L
- Na [17]: 140.8 meq/L
- PL [17]: 146 mg/dL
- RALB [17]: 2.7 g/dL
- TBIL [17]: 0.1 mg/dL
- TC [17]: 68.2 mg/dL
- TG [17]: 123.2 mg/dL
- TP [17]: 5.3 g/dL
- gamma-GTP [17]: 0.8 IU/L
